Test results as given in patent US11091421B2, “Benzene fused heterocyclic derivative and pharmaceutical composition comprising the same” (TAIWANJ PHARMACEUTICALS CO., LTD., priority 2017, dated 2021).

Target: autotaxin (Homo sapiens, UniProt Q13822)
Assay: Autotaxin inhibitor screening assay (phosphodiesterase activity, p-nitrophenol cleaved from bis-(p-nitrophenyl) phosphate, absorbance 410 nm)
Assay type: biochemical
Conditions: compound at 30 μM; BNPP 3 mM, pH 9.0, 37° C., 30 minutes
Experimental: As described above, the compounds in the present disclosure have the effect of inhibiting the activity of autotaxin, and can be used as autotaxin inhibitors. One method for inhibiting activity of autotaxin in environment is administering to the environment an effective amount of the compound of Formula (I). Please refer to the following experiment, the phosphodiesterase activity of autotaxin was measured using the p-nitrophenol that is a yellow product cleaved by autotaxin from the bis-(p-nitrophenyl) phosphate. Compound samples (10 μl) were incubated with autotaxin (10 μl) in a final volume of 200 μl assay buffer (5 mM CaCl2, 50 mM Tris-HCl, pH 9.0) containing bis-(p-nitrophenyl) phosphate (BNPP) at a final concentration of 3 mM at 37° C. After 30 minutes, absorbance at 410 nm of the reacted solution was measured. The percent inhibition for each test article (TA) (compound) was determined using the following equation. % Inhibition=(O.D.vehicle−O.D.TA)/O.D.vehicle×100

Inhibition | SMILES
B (50%~80% inhibition at 30 μM) | O=C1c2cc(O)ccc2CC1CC1CCN(C(=O)OCc2cc(Cl)cc(Cl)c2)CC1 (centres unmarked) [Compound 119]

Same assay, conditions: pH 9

SMILES | inhibition at 30 µM [%]
O=C(Nc1ccc2c(c1)CC(Cc1ccc(C(=O)O)cc1)C2)OCc1ccccc1 (centres unmarked) [Compound 110] | 50 to 80

Same assay, conditions: pH 9, compound at 30 μM; BNPP 3 mM, pH 9.0, 37° C., 30 minutes; read-out: Inhibition

SMILES | inhibition at 30 µM [%]
O=C(O)c1ccc(COc2ccc3c(c2)C/C(=C\c2ccc(Cl)cc2)C3=O)cc1 [Compound 5] | > 80
O=C1/C(=C/c2ccc(C(F)(F)F)cc2)Cc2ccc(OCc3ccc(F)c(F)c3)cc21 [Compound 6] | < 50
O=C1/C(=C/c2cccc(C(F)(F)F)c2)Cc2ccc(OCc3ccc(F)c(F)c3)cc21 [Compound 7] | 50 to 80
O=C(O)c1ccc(COc2ccc3c(c2)C/C(=C\c2ccc(-c4ccc(F)cc4)cc2)C3=O)cc1 [Compound 12] | > 80
O=C(O)c1ccc(COc2ccc3c(c2)C/C(=C\c2ccc(OCCOc4ccc(F)cc4F)cc2)C3=O)cc1 [Compound 16] | 50 to 80
O=C(O)c1ccc(COc2ccc3c(c2)C/C(=C\CCc2cc(Cl)cc(Cl)c2)C3=O)cc1 [Compound 17] | > 80
O=C(O)c1ccc(COc2ccc3c(c2)C/C(=C\c2ccc(Cl)cc2Cl)C3=O)cc1 [Compound 19] | > 80
O=C(O)c1ccc(COc2ccc3c(c2)C/C(=C\c2cc(Cl)cc(Cl)c2)C3=O)cc1 [Compound 20, (E)-4-(((2-(3,5-dichlorobenzylidene)-1-oxo-2,3-dihydro-1H-inden-5-yl)oxy)methyl)benzoic acid] | > 80
O=C(Nc1ccc2c(c1)C/C(=C\c1cccc(C(F)(F)F)c1)C2=O)OCc1ccccc1 [Compound 26] | < 50
O=C(Nc1ccc2c(c1)C/C(=C\c1ccc(C(F)(F)F)cc1)C2=O)OCc1ccccc1 [Compound 27] | < 50
O=C(Nc1ccc2c(c1)C/C(=C\c1ccc(C(=O)O)cc1)C2=O)OCc1ccccc1 [Compound 28] | < 50
O=C(NCc1cc(F)ccc1F)c1ccc(/C=C2\Cc3cc(O)ccc3C2=O)cc1 [Compound 33] | 50 to 80
O=C(Nc1ccc2c(c1)C(=O)N(Cc1ccc(C(F)(F)F)cc1)C2=O)OCc1ccccc1 [Compound 38] | < 50
O=C1c2ccc(O)cc2CCC1CN1CCN(C(=O)OCc2cc(Cl)cc(Cl)c2)CC1 (centres unmarked) [Compound 85] | > 80
COC(=O)c1ccc(COc2ccc3c(c2)C/C(=C\c2ccc(Cl)c(F)c2)C3=O)cc1 [Compound 88] | > 80
COC(=O)c1ccc(COc2ccc3c(c2)O/C(=C\c2ccc(F)c(F)c2)C3=O)cc1 [Compound 89] | 50 to 80

SMILES | inhibition at 30 µM [%]
O=C1/C(=C/c2ccc(C(F)(F)F)cc2)CCc2cc(OCc3ccc(F)c(F)c3)ccc21 [Compound 92] | 50 to 80
O=C1/C(=C/c2cccc(C(F)(F)F)c2)CCc2cc(OCc3ccc(F)c(F)c3)ccc21 [Compound 93] | 50 to 80
O=C(Nc1ccc(F)c(F)c1)c1ccc2c(c1)C(=O)N(Cc1cccc(C(F)(F)F)c1)C2=O [Compound 96] | 50 to 80
O=C1/C(=C/c2ccc(OCCc3ccc(F)cc3)cc2)CCc2cc(O)ccc21 [Compound 100] | < 50
O=C1/C(=C/c2ccc(OCCOc3ccc(F)cc3F)cc2)CCc2cc(O)ccc21 [Compound 101] | < 50
O=C1c2cc(O)ccc2CC1CC1CCN(C(=O)OCc2cc(Cl)cc(Cl)c2)CC1 (centres unmarked) [Compound 117] | < 50
O=C(Nc1ccc(CC2CCc3cc(O)ccc3C2=O)cc1)Nc1cc(Cl)cc(Cl)c1 (centres unmarked) [Compound 118] | < 50
CNC(=O)c1ccc(COc2ccc3c(c2)C/C(=C\c2cc(Cl)cc(Cl)c2)C3=O)cc1 [Compound 120] | > 80
CS(=O)(=O)N1CCN(C(=O)c2ccc(COc3ccc4c(c3)C/C(=C\c3cc(Cl)cc(Cl)c3)C4=O)cc2)CC1 [Compound 121] | < 50
CS(=O)(=O)c1ccc(COc2ccc3c(c2)C/C(=C\c2cc(Cl)cc(Cl)c2)C3=O)cc1 [Compound 122] | < 50
CNS(=O)(=O)c1ccc(COc2ccc3c(c2)C/C(=C\c2cc(Cl)cc(Cl)c2)C3=O)cc1 [Compound 123] | < 50
CS(=O)(=O)Cc1ccc(COc2ccc3c(c2)C/C(=C\c2cc(Cl)cc(Cl)c2)C3=O)cc1 [Compound 124] | < 50
CS(=O)(=O)NC(=O)c1ccc(COc2ccc3c(c2)C/C(=C\c2cc(Cl)cc(Cl)c2)C3=O)cc1 [Compound 125] | > 80
CS(=O)(=O)c1ccc(COc2ccc3c(c2)C/C(=C\c2ccc(F)c(Cl)c2)C3=O)cc1 [Compound 126] | < 50
CONC(=O)c1ccc(COc2ccc3c(c2)C/C(=C\c2cc(Cl)cc(Cl)c2)C3=O)cc1 [Compound 127] | 50 to 80
O=C(NO)c1ccc(COc2ccc3c(c2)C/C(=C\c2cc(Cl)cc(Cl)c2)C3=O)cc1 [Compound 128] | 50 to 80

Second part, the molecule after the results:

inhibition at 30 µM [%] | SMILES
< 50 | O=C(O)c1ccc(/C=C2\Cc3ccc(OCc4ccc(F)c(F)c4)cc3C2=O)cc1 [Compound 8]
< 50 | O=C(O)c1cccc(/C=C2\Cc3ccc(OCc4ccc(F)c(F)c4)cc3C2=O)c1 [Compound 9]
< 50 | O=C(O)c1ccc(/C=C2\Cc3cc(OCc4cc(F)c(F)cc4F)ccc3C2=O)cc1 [Compound 10]
50 to 80 | O=C(O)c1ccc(/C=C2\Cc3cccc(OCc4cc(F)c(F)cc4F)c3C2=O)cc1 [Compound 11]
> 80 | O=C(O)c1ccc(COc2ccc3c(c2)C/C(=C\c2ccc(Cl)c(F)c2)C3=O)cc1 [Compound 13]
> 80 | O=C(O)c1ccc(COc2ccc3c(c2)C/C(=C\c2ccc(OCc4cc(F)c(F)cc4F)cc2)C3=O)cc1 [Compound 14]
50 to 80 | O=C(O)c1ccc(COc2ccc3c(c2)C/C(=C\c2ccc(OCc4cc(F)c(F)cc4F)c(F)c2)C3=O)cc1 [Compound 15]
50 to 80 | O=C(O)c1ccc(COc2ccc3c(c2)C/C(=C\c2cc(F)c(F)c(F)c2)C3=O)cc1 [Compound 18]
> 80 | O=C(O)c1ccc(COc2ccc3c(c2)C/C(=C\c2cc(F)c(F)cc2F)C3=O)cc1 [Compound 21]
< 50 | O=C(NCc1cc(F)ccc1F)c1ccc(CC2Cc3cc(O)ccc3C2=O)cc1 (centres unmarked) [Compound 32]
50 to 80 | O=C(OCc1cc(F)c(F)cc1F)c1ccc(CC2Cc3ccc(O)cc3C2=O)cc1 (centres unmarked) [Compound 34]
< 50 | O=C(O)c1ccc(CC2CCc3cc(OCc4cc(F)c(F)cc4F)ccc3C2=O)cc1 (centres unmarked) [Compound 44]
50 to 80 | O=C(NCCO)c1ccc(CC2CCc3cc(OCc4cc(F)c(F)cc4F)ccc3C2=O)cc1 (centres unmarked) [Compound 45]
50 to 80 | O=C(O)c1ccc(/C=C2\CCc3c(OCc4cc(F)c(F)cc4F)cccc3C2=O)cc1 [Compound 46]
50 to 80 | O=C(O)c1ccc(CC2CCc3c(OCc4cc(F)c(F)cc4F)cccc3C2=O)cc1 (centres unmarked) [Compound 47]
50 to 80 | O=C(O)c1ccc(/C=C2\CCc3cc(OCCc4ccc(F)cc4)ccc3C2=O)cc1 [Compound 50]
> 80 | O=C(O)c1ccc(CC2CCc3cc(OCCc4ccc(F)cc4)ccc3C2=O)cc1 (centres unmarked) [Compound 51]

inhibition at 30 µM [%] | SMILES
50 to 80 | O=C(O)c1cc(CC2CCc3cc(OCCc4cc(F)ccc4F)ccc3C2=O)ccc1O (centres unmarked) [Compound 52]
> 80 | O=C1c2ccc(OCCc3cc(F)ccc3F)cc2CCC1Cc1ccc(O)c(O)c1 (centres unmarked) [Compound 53]
< 50 | O=C(NCc1cc(F)ccc1F)c1ccc(CC2CCc3cc(O)ccc3C2=O)cc1 (centres unmarked) [Compound 56]
> 80 | O=C(OCc1cc(F)c(F)cc1F)c1ccc(CC2CCc3cc(O)ccc3C2=O)cc1 (centres unmarked) [Compound 57]
> 80 | O=C(OCc1ccc(F)c(F)c1)c1ccc(CC2CCc3cc(OCc4ccc(F)c(F)c4)ccc3C2=O)cc1 (centres unmarked) [Compound 58]
50 to 80 | O=C(NCc1ccc(F)c(F)c1)c1ccc(CC2CCc3cc(O)ccc3C2=O)cc1 (centres unmarked) [Compound 59]
50 to 80 | O=C(NCCc1ccc(Cl)c(Cl)c1)c1ccc(CC2CCc3cc(O)ccc3C2=O)cc1 (centres unmarked) [Compound 60]
50 to 80 | CN(Cc1cc(F)c(F)cc1F)C(=O)c1ccc(CC2CCc3cc(O)ccc3C2=O)cc1 (centres unmarked) [Compound 61]
> 80 | O=C(OCc1cc(F)ccc1F)c1ccc(CC2CCc3cc(OCc4cc(F)ccc4F)ccc3C2=O)cc1 (centres unmarked) [Compound 62]
> 80 | O=C(Nc1ccc(CC2CCc3cc(O)ccc3C2=O)cc1)OCc1ccc(Cl)c(Cl)c1 (centres unmarked) [Compound 68]
< 50 | O=C(Cc1ccc(F)c(F)c1)Nc1ccc(CC2CCc3cc(O)ccc3C2=O)cc1 (centres unmarked) [Compound 69]
> 80 | O=C(Nc1ccc(CC2CCc3cc(O)ccc3C2=O)cc1)OCc1cc(Cl)cc(Cl)c1 (centres unmarked) [Compound 70]
50 to 80 | O=C(Nc1ccc(CC2CCc3cc(O)ccc3C2=O)cc1)OCc1cc(F)c(F)cc1F (centres unmarked) [Compound 71]
50 to 80 | O=C(O)c1ccc(CN2CCc3cc(OCc4cc(F)c(F)cc4F)ccc3C2=O)cc1 [Compound 77]
50 to 80 | O=C(CCc1ccc(CC2CCc3cc(O)ccc3C2=O)cc1)c1ccc(F)c(F)c1 (centres unmarked) [Compound 81]
< 50 | O=C1/C(=C/c2ccc(OCc3cc(F)c(F)cc3F)cc2)CCc2cc(O)ccc21 [Compound 99]
50 to 80 | O=C1c2ccc(O)cc2CCC1Cc1ccc(OCCOc2ccc(F)cc2F)cc1 (centres unmarked) [Compound 102]
